Reference: PMC4457528, “Identification of Novel Small Molecule Inhibitors of Oncogenic RET Kinase” (PLoS ONE, 2015)
Read-outs that look alike come from different tables or passages of the source.

Columns and labels:
Test in all cases: KinomeScan kinase panel, single concentration 10 µM
Assay type in all cases: binding
KinomeScan kinase panel [1] = biological target: T1, KinomeScan kinase panel (Homo sapiens, UniProt Q16539); conditions: p38-alpha, 10 µM
T1 construct: purchased DiscoveRx (KinomeScan)

KinomeScan kinase panel [2] = biological target: T2, KinomeScan kinase panel (Homo sapiens, UniProt Q99683); conditions: read-out: score (%)
T2 construct: purchased DiscoveRx (KinomeScan)
T2 sequence (Q99683 1-1374): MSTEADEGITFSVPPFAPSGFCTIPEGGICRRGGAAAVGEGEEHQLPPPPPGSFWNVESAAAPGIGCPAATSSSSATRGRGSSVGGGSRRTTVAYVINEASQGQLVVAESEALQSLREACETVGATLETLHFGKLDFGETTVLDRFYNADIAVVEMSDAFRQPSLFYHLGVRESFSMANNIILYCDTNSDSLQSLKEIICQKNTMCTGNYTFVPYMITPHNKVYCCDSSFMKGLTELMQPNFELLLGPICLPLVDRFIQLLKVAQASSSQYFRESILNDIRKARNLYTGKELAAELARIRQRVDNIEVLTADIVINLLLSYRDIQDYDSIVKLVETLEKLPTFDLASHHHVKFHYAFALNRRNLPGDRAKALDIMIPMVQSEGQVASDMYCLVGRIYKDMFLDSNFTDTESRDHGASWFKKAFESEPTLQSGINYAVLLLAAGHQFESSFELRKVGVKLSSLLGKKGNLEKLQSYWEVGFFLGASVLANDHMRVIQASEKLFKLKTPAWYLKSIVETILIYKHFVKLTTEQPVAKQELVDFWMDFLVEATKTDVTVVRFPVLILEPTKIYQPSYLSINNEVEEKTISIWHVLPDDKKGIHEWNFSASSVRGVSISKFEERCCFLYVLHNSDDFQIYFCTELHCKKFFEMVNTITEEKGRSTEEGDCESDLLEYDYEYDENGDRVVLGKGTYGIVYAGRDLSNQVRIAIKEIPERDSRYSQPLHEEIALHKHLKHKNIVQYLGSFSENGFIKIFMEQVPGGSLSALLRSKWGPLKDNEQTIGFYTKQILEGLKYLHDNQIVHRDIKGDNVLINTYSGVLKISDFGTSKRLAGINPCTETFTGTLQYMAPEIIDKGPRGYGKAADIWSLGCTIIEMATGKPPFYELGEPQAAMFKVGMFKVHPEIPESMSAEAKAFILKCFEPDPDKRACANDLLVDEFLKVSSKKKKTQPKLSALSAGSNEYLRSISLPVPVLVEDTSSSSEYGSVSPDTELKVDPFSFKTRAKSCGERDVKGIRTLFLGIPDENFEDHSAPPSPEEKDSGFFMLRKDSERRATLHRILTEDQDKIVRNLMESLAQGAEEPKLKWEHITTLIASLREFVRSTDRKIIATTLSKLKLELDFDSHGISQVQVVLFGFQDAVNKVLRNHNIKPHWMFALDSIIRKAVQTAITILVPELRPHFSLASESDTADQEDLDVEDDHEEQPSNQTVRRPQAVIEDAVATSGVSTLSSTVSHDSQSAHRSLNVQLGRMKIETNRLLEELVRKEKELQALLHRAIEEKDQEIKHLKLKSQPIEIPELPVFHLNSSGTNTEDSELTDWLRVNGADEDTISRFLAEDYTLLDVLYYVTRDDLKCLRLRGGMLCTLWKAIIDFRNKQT

KinomeScan kinase panel [3] = biological target: T3, KinomeScan kinase panel (Homo sapiens, UniProt P51451); conditions: BLK, 10 µM; read-out: score (%)
T3 construct: purchased DiscoveRx (KinomeScan)

KinomeScan kinase panel [4] = biological target: T4, KinomeScan kinase panel (Homo sapiens, UniProt P49761); conditions: CLK3, 10 µM; read-out: score (%)
T4 construct: purchased DiscoveRx (KinomeScan)

KinomeScan kinase panel [5] = biological target: T5, KinomeScan kinase panel (Homo sapiens, UniProt Q9UF33); conditions: EPHA6, 10 µM; read-out: score (%)
T5 construct: purchased DiscoveRx (KinomeScan)
T5 sequence (Q9UF33 23-1036): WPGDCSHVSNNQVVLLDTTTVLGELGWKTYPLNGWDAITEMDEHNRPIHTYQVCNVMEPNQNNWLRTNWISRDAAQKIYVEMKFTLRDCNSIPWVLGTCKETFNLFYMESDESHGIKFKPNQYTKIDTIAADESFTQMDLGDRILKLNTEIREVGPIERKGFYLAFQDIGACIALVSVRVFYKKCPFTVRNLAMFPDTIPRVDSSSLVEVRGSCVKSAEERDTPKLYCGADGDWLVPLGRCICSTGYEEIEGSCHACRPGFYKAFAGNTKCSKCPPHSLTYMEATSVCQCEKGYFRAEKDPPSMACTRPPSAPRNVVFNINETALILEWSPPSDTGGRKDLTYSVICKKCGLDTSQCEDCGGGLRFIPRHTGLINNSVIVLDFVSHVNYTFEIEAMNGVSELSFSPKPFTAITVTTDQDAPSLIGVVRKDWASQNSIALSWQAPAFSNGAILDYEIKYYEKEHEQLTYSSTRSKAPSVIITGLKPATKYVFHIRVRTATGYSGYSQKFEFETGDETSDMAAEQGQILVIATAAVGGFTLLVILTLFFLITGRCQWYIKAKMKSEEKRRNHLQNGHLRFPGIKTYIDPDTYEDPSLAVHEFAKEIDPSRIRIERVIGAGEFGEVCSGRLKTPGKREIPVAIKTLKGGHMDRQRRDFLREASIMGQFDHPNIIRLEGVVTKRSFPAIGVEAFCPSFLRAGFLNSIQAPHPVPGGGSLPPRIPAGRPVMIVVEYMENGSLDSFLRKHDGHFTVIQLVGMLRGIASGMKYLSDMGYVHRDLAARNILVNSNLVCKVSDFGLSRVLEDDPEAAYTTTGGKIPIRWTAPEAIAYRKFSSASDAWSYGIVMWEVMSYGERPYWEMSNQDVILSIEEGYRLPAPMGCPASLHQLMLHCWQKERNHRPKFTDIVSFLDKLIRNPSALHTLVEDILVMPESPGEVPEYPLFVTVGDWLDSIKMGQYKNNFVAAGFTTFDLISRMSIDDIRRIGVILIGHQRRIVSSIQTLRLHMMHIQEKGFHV

KinomeScan kinase panel [6] = biological target: T6, KinomeScan kinase panel (Homo sapiens, UniProt Q16620); conditions: 10 µM, read-out: score (%)
T6 construct: purchased DiscoveRx (KinomeScan)

KinomeScan kinase panel [7] = biological target: T7, KinomeScan kinase panel (Homo sapiens, UniProt Q9P1W9); conditions: PIM2, 10 µM; read-out: score (%)
T7 construct: purchased DiscoveRx (KinomeScan)

KinomeScan kinase panel [8] = biological target: T8, KinomeScan kinase panel (Homo sapiens, UniProt Q9Y6R4); conditions: MAP3K4, 10 µM; read-out: score (%)
T8 construct: purchased DiscoveRx (KinomeScan)

KinomeScan kinase panel [9] = biological target: T9, KinomeScan kinase panel (Homo sapiens, UniProt P35916); conditions: FLT4, 10 µM; read-out: score (%)
T9 construct: purchased DiscoveRx (KinomeScan)

KinomeScan kinase panel [10] = biological target: T10, KinomeScan kinase panel (Homo sapiens, UniProt P12931); conditions: 10 µM, read-out: score (%)
T10 construct: purchased DiscoveRx (KinomeScan)
T10 sequence (P12931 whole entry): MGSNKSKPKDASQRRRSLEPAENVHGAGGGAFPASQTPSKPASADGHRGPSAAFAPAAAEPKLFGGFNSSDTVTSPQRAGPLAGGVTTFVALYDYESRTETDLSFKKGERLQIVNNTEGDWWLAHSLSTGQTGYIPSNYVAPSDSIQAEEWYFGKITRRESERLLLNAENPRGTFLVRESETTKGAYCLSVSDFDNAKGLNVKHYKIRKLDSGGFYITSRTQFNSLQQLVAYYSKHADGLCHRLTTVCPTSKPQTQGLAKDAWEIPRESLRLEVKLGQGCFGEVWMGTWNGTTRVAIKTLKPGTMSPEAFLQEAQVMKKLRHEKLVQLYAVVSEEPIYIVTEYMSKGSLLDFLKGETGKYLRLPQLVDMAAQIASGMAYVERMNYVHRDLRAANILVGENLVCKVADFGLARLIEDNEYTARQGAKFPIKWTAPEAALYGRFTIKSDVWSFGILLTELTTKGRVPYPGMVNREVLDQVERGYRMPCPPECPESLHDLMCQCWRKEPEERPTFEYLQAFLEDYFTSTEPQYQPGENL

T1 sequence (Q16539 whole entry): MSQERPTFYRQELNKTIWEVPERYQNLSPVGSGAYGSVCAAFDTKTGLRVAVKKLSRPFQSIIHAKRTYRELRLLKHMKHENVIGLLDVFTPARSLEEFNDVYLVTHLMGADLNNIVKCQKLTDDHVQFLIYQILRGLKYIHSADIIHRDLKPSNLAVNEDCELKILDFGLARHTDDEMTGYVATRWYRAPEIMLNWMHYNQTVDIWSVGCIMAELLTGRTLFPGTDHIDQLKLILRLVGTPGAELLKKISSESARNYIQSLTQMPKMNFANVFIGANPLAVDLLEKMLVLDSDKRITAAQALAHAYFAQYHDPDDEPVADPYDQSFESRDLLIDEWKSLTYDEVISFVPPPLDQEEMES
T6 sequence (Q16620 32-822): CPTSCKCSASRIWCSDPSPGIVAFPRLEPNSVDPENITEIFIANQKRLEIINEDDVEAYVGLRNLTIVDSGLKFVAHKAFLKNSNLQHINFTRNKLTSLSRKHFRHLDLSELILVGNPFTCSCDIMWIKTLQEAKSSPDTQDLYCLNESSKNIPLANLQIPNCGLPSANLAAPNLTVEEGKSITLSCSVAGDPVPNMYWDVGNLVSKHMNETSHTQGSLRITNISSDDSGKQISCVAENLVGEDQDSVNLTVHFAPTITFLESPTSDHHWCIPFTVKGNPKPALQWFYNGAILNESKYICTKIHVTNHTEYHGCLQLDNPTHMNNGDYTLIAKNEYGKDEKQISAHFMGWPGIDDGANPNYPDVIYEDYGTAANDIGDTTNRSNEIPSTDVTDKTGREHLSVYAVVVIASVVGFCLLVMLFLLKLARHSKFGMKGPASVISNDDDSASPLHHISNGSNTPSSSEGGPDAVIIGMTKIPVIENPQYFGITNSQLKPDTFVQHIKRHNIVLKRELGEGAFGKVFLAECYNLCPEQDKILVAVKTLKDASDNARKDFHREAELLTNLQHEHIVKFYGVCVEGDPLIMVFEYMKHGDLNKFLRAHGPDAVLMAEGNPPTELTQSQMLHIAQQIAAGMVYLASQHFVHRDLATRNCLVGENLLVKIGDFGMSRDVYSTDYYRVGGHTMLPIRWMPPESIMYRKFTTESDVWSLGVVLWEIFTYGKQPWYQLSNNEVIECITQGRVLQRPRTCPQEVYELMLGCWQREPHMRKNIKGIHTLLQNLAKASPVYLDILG
T7 sequence (Q9P1W9 whole entry): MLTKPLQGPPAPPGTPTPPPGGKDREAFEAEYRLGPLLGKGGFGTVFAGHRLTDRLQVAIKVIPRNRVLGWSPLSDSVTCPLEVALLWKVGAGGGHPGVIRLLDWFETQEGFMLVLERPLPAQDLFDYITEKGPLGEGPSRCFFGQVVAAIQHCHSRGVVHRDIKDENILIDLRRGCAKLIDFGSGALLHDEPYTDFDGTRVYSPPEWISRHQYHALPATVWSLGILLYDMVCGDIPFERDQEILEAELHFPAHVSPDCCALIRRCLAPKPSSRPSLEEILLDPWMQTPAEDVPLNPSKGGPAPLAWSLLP
T8 sequence (Q9Y6R4 whole entry): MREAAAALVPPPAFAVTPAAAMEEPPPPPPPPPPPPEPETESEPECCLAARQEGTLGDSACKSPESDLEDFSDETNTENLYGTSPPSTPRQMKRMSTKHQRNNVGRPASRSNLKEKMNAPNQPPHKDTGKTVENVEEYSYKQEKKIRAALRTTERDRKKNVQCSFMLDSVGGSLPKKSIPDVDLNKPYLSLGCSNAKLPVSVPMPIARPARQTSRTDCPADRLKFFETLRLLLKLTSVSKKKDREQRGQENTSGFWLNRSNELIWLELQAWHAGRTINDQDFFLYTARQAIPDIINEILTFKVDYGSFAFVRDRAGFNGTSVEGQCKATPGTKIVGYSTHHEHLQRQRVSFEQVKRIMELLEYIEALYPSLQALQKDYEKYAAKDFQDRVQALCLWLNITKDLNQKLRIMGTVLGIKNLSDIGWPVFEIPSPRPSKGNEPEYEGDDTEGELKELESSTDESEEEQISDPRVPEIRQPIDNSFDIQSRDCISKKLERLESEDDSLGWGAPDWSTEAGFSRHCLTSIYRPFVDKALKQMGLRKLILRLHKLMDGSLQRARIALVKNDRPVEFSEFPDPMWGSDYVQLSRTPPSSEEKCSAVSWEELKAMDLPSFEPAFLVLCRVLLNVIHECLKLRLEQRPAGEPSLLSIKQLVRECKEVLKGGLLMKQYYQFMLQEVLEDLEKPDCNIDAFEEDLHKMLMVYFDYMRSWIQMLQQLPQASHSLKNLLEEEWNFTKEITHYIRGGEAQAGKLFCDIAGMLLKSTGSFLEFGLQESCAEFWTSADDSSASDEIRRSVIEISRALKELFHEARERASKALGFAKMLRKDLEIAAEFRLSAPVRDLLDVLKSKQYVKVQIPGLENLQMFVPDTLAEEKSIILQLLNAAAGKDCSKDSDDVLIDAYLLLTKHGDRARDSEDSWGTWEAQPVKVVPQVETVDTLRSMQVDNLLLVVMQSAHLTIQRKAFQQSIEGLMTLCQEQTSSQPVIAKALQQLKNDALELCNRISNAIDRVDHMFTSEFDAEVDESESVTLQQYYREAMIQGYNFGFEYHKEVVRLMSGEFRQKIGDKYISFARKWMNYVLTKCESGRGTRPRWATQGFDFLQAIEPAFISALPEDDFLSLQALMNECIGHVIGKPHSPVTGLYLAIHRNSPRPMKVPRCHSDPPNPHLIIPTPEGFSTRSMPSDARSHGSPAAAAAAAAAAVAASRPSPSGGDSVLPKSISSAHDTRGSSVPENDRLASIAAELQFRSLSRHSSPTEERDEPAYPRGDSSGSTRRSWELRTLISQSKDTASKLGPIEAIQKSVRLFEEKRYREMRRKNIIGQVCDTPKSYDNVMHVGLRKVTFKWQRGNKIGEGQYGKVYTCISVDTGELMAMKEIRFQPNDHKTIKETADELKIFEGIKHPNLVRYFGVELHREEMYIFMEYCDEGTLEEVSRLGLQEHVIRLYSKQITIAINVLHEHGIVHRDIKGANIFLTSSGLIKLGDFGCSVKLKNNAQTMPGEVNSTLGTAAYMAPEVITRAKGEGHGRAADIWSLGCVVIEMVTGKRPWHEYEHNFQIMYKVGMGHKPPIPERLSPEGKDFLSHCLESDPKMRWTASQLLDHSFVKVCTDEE
T4 sequence (P49761 whole entry): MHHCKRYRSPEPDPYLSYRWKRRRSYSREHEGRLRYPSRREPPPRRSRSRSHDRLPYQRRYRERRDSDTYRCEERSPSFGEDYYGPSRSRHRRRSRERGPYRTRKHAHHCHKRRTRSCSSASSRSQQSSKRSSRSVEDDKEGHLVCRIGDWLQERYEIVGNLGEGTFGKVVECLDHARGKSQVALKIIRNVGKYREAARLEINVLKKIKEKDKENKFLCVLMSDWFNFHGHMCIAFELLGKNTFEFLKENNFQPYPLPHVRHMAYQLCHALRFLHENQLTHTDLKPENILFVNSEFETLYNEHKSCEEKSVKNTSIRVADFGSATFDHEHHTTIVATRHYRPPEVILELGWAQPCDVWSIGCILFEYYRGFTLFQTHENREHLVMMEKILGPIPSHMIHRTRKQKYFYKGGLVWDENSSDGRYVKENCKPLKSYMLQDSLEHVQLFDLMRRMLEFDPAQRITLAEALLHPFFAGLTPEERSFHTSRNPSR
T3 sequence (P51451 whole entry): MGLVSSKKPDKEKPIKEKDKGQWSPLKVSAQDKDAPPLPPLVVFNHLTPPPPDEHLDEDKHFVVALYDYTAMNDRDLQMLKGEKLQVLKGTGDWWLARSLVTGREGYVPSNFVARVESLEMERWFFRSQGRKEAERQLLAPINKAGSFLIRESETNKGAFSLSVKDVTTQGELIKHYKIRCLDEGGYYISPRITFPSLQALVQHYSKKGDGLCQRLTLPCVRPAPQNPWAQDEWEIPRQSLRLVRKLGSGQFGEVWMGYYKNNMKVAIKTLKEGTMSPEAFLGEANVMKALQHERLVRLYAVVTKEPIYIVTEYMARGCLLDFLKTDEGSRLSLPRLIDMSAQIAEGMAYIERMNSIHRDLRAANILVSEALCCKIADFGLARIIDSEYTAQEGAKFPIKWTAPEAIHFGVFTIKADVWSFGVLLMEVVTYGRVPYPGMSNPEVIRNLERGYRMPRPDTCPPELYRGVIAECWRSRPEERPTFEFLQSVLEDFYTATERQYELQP

remaining binding at 10 µM (KinomeScan kinase panel [2]; MAP3K5, 10 µM) | remaining binding at 10 µM (KinomeScan kinase panel [6]; TRKB) | remaining binding at 10 µM (KinomeScan kinase panel [10]; SRC) | Structure (SMILES) | score (%) (KinomeScan kinase panel [1]) | remaining binding at 10 µM (KinomeScan kinase panel [2]; ASK1, 10 µM) | remaining binding at 10 µM (KinomeScan kinase panel [3]) | remaining binding at 10 µM (KinomeScan kinase panel [4]) | remaining binding at 10 µM (KinomeScan kinase panel [5]) | remaining binding at 10 µM (KinomeScan kinase panel [6]; kinase TRKB) | remaining binding at 10 µM (KinomeScan kinase panel [7]) | remaining binding at 10 µM (KinomeScan kinase panel [8]) | remaining binding at 10 µM (KinomeScan kinase panel [9]) | remaining binding at 10 µM (KinomeScan kinase panel [10]; kinase SRC)
– | – | – | CCN1CCN(Cc2ccc(NC(=O)c3ccc(C)c(C#Cc4cccnc4)c3)cc2C(F)(F)F)CC1 [XMD15-44] | 0% | > 30% | 0% | > 30% | 0% | 1.6% | 100% | > 30% | 0% | 0%
> 30% | 1.6% | 0.25% | CCN1CCN(Cc2ccc(NC(=O)c3ccc(C)c(/C=C/c4cnc5[nH]ccc5c4Cl)c3)cc2C(F)(F)F)CC1 [HG-6-63-01, (E)-3-(2-(4-chloro-1H-pyrrolo[2,3-b]pyridin-5-yl)vinyl)-N-(4-((4-ethylpiperazin-1-yl)methyl)-3-(trifluoromethyl)phenyl)-4-methylbenzamide] | 0.15% | – | 0.2% | > 30% | 6.7% | – | > 30% | > 30% | 0.15% | –
– | – | – | CCN1CCN(Cc2ccc(NC(=O)c3ccc(C)c(NC(=O)c4cncc(-c5cccs5)c4)c3)cc2C(F)(F)F)CC1 [ALW-II-41-27] | 0% | > 30% | 0.1% | > 30% | 28% | 4% | 22% | > 30% | 0% | 0.1%
